“Also recorded” adds a separate entry of the source.
Tested on: cell suspensions of A. woodii
Test: Formate production by whole cell catalysis, cell suspensions of A. woodii converting H2 and CO2
Type: cell-based, Acetobacterium woodii
Details: ETH2120 30 μM
Description: Cell suspensions of A. woodii (1 mg/ml) were incubated using a gas phase of 0.8×10^5 Pa H2 and 0.2×10^5 Pa CO2 (1A). Adding the Na^+ ionophore ETH2120 (30 μM) gives rise to the production of up to 8 mM formate and the production of acetate stopped (1B). For experiments with whole cells, the inventors used cell suspensions of A. woodii for the conversion of H2 and CO2 to formate. The energy metabolism of A. woodii is strictly sodium ion dependent, and the ATP synthase uses Na^+ as the coupling ion. Thus, by omitting sodium ions in the buffer or by adding sodium ionophores (the inventors used the ionophore ETH2120 in this study), it is possible to switch off the energy metabolism specifically. Cells suspended in imidazole buffer (50 mM imidazole, 20 mM MgSO4, 20 mM KCl, 4 mM DTE, pH 7.0) containing 20 mM NaCl converted H2+CO2 to acetate, and only small amounts of formate were produced from a gas phase of 0.8×10^5 Pa II2 and 0.2×10^5 CO2. […] In agreement with the results obtained from the purified enzyme, foimate production was also observed when hydrogen was absent and the electron donor was CO but with lower rates compared to hydrogen as electron donor.

## O=C(COc1ccccc1OCC(=O)N(C1CCCCC1)C1CCCCC1)N(C1CCCCC1)C1CCCCC1 [ETH2120, N,N,N′,N′-Tetracyclohexyl-1,2-phenylenedioxydiacetamide]
A. woodii cell suspension (1 mg/ml), gas phase 0.8×10^5 Pa H2 and 0.2×10^5 Pa CO2
  production of formate (concentration reached): up to 8 mM
A. woodii cell suspension (1 mg/ml), gas phase 0.8×10^5 Pa H2 and 0.2×10^5 Pa CO2, imidazole buffer with 20 mM NaCl
  acetate production: stopped; also recorded: ceased almost completely
A. woodii cells in imidazole buffer with 20 mM NaCl, gas phase 0.8×10^5 Pa H2 and 0.2×10^5 CO2
  initial rate of formate production: 2 μmol/min×mg cell protein

— patent US10717997B2, “Method for storing gaseous hydrogen through producing methanoate (formate)” (Johann Wolfgang Goethe-Universität, priority 2013, dated 2020)
